Source: ChEMBL document CHEMBL1131799, “Polyunsaturated fatty acid anilides as inhibitors of acyl-coA: cholesterol acyltransferase (ACAT)” (Bioorg Med Chem Lett, 1999)

How the values were obtained:
[1] = molecular target: T1, Acyl-CoA:cholesterol acyltransferase (Oryctolagus cuniculus, UniProt Q95214); test: Compound was tested for inhibitory activity against ACAT from rabbit adrenal gland; format: tissue-based
T1 sequence (Q95214 whole entry): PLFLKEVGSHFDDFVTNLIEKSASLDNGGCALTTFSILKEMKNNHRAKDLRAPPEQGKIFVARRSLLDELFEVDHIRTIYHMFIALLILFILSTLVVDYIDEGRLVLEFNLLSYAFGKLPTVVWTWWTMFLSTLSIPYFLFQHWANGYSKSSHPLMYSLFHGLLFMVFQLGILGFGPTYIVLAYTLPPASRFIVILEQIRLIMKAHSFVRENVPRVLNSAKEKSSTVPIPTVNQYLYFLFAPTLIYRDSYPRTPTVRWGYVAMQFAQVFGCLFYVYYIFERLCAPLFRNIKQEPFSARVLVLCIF

[2] = molecular target: O-acyltransferase (Oryctolagus cuniculus, UniProt G1SFD9); test: Compound was tested for inhibitory activity against ACAT from rabbit intestine; format: tissue-based
Sequence of O-acyltransferase (G1SFD9 1-524): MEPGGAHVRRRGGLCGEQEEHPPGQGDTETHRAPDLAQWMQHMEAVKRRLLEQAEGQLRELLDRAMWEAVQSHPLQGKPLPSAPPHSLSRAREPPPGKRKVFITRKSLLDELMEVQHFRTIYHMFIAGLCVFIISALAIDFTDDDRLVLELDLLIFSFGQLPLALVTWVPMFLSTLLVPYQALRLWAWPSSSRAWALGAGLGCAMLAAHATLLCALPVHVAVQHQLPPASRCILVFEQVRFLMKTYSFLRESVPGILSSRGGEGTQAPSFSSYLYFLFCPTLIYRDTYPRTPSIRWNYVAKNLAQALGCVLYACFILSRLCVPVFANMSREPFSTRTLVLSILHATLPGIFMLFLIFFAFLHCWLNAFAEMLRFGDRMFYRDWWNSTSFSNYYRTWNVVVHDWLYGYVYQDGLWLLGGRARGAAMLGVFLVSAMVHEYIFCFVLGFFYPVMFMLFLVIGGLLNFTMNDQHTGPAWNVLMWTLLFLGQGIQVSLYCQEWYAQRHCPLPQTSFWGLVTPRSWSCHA

[3] = molecular target: T1, Acyl-CoA:cholesterol acyltransferase; test: Compound was tested for inhibitory activity against ACAT from rabbit liver

## C/C=C/C/C=C/C/C=C/C/C=C/C/C=C/C/C=C/CCCC(=O)Nc1c(C(C)C)cccc1C(C)C
[1]
  IC50: 228 nM
[2]
  IC50: 45 nM
[3]
  IC50: 56 nM

## CCCCCCCCCCCCCC(=S)Nc1c(C(C)C)cccc1C(C)C
[1]
  IC50: 554 nM
[2]
  IC50: 6 nM
[3]
  IC50: 15 nM

## CCCCCCCCCCC(C)(C)C(=O)Nc1c(OC)cc(OC)cc1OC [CL-976]
[1]
  IC50: 1950 nM
[3]
  IC50: 191 nM
